Measured values as given in US20030175365A1, “Natural drug induced differentiation cancer cells to resemble normal cells” (priority 2002, published 2003).
Marks after values point to notes of the source that are not given here.

How the values were obtained:
[1] = test system: Human leukemia cells (HL-60); assay: Apoptosis of cancer cells; format: cell-based; settings: drug concentration 20 μm
Description: Human leukemia cells (HL-60) were grown in RPMI Medium 1640 supplemented with 10% (v/v) heat-inactivated FBS (56° C. for 30 min) at 37° C. in a humidified 95% air/5% CO2 atmosphere. Cells were seeded at a level of 2×10^5 cells/ml. Cells were allowed to attain a maximum density of 1.2×10^6 cells/ml before being passed by dilution into fresh medium to a concentration of 2×10^5 cells/ml.
Apoptosis Determined by two Methods:
Method (1): Cell pellets containing 5×10^6 cells were fixed with 2.5% glutaraldehyde in cacodylate buffer (pH 7.4), dehydrated through graded alcohol, and infiltrated with LX-112 epoxy resin. After overnight polymerization at 60°C. […]
DNA electrophoresis: Untreated and treated HL-60 cells collected by centrifugation, washed in phosphate buffered saline and re-suspended at a concentration of 5×10^6 cells and 0.1% RNase A. The mixture was incubated at 37° C. for 30 min and then incubated for an additional 30 min at 37° C. with 1 ml protease K. Buffer was added and 25 μl of the tube content transferred to the Horizontal 1.5% agarose gel electrophoresis was performed at 2 V/cm. […] DNA fragmentation assays: DNA cleavage was performed, quantitation of fractional solubilized DNA by diphenylamine assay and the percentage of cells harboring fragmented DNA determined by in labeling techniques. […] DNA was precipitated with 0.5 N perchloric acid and quantitated using diphenylamine reagent. […]

HL-60 cells = assay: Induction of differentiation of human leukemic cells (NBT reduction, NSE staining); format: cell-based; settings: Leukemic cells + HHT; P < 0.001 vs leukemic cells
Description: Cell Lines. HL-60 cells were established from a patient with acute myeloid leukemia. The cells were cultured in culture flasks with RPMI plus 10% FCS.
Studies of Induction of Differentiation. Differentiation of HL-60 cells was assessed by their abilities to produced superoxide as measured by reduction of NBT, by NSE staining and by morphology as detected on cytospin preparations stained with Diff-Quick stain Set, and by analysis of membrane-bound differentiation markers with two-color immunofluorescence. Briefly, cells were preincubated at 4° C. for 60 min in 10% human AB serum and then with FITC-conjugated mouse IgGI isotype control. Analysis of fluorescence was performed on a flow cytometer.

[2] = test system: malignant melanocarcinoma B16; assay: Tumor cell proliferation inhibition, B16; format: cell-based, Mouse; settings: 1 μg/ml drug, 72 hours
Description: (§1) Human tumor cell lines: Hela leukemia HL-60, malignant melanocarcinoma B16, oral epidermoid carcinoma (KB), lung carcinoma (A549), breast carcinoma MCF-7, adenocarcinoma of stomach.
(§2) Animal tumor cell lines: Walker carcinoma, LLC-WRC-256, malignant melanoma (RMMI 1846), 3T3,and S-180 sarcoma (CCRF-180). All lines were routinely cultured in the RPMI1640 medium supplemented 20% fetal calf serum. The experiment was carried out in 96 microplate, each well had […] and given desired concentration of 1 μg/ml (1 x 10^−6 g/ml) drug. Then the plate was incubated at 37° C. in an atmosphere of humidified air enriched with 5 percent carbon dioxide for 72 hours.
(§3) Inhibition percent rate of tumor cell proliferation was obtained according to the bellow formula. [formula]

normal mice = assay: Toxic doses for mice (repeated injection); format: in vivo; settings: 38 normal mice, injection of 2 mg/kg/day×5, observation period of 5 days
Description: (§4) Toxic doses for dogs: 0.16 mg/kg/day×7 of HHT was established as the toxic doses. Toxic doses for mice: In 38 normal mice after injection of HHT of 2 mg/kg/day×5 with the observation period of 5 days about 50% of the mice died.

HL-60 = assay: Tumor cell proliferation inhibition, HL-60; format: cell-based, Human; settings: 1 μg/ml drug, 72 hours
Description: as §1, §2, §3

tumor suppressor p^53 = assay: p53 mutations by PCR-SSCP; format: cell-based
Description: The leukemic cancer cells and normal cells were cultured in RPMI 1640 medium supplement with 10% fetal bovine serum. All the exons of the p^53 were amplified by the polymease chain reaction (PCR) using specific oligonucleotide primers. The PCR products were subjected to single-strand conformation polymorphism (SSCP) analysis. […] Levels of DNA methylation were determined.

mice = assay: LD50 in mice; format: in vivo; settings: I.P.
Description: as §4

dogs = assay: Toxic doses for dogs; format: in vivo; settings: ×7
Description: as §4

[3] = test system: TPA-stimulated mouse epidermis; assay: [3H] thymidine incorporation (DNA synthesis) in TPA-stimulated mouse epidermis; format: in vivo; settings: TPA-treated mice
Description: It is known that tetradecanoyphorbol-13-acetate (TPA) is strong tumor promoter and TPA can remarkable increase [^3H] thymidine incorporation in mouse epidermis and then to induce Epidermis cancer.
ice were treated with TPA and the rate of [^3H] thymidine incorporation was determined 20 hours later. Male mice (7-9 weeks old) used for experiments. Only mice showing no hair regrowth following shaving were used. Animals were injected intraperitoneally (i.p.) with TPA or 95% saline. After 20 hours, mice were injected i.p. with 60 μCi of [^3H] thymidine (2 Ci/mmol) 20 minutes before sacrifice. Epidermal scrapings were prepared. Epidermis cancer cells were cultured in condition of example 1.

c-myc RNA = assay: Oncogene expression by northern blot in ML-1 cells: c-myc; format: cell-based, Human
Description: (§5) Human myeloblastic leukemic cells (ML-1) were maintained in suspension culture in RPMI 1640 medium supplemented with 7.5% heat-inactivated FBS. Cells growth and viability were assayed by hemocytometer using trypan-blue dye exclusion.
(§6) RNA was isolated by the CsCl gradient modification. RNA pellets were washed twice by reprecipitation in ethanol and quantitated by absorbency at […]. RNA analyzed by electrophoresis of 15 μg of RNA through 1.2% agarose formaldehyde gels followed by northern blot transfer to nitrocellulose.
(§7) Single-standard uniformly labeled DNA probes were prepared. Probe of c-myc was a 1.7 Kb cla-Eco RI restriction fragment containing the 3′exon region of human c-myc and probe of c-myb was 1.0 Kb myb-specific Bam HI fragment. Probes for n-ras contained DNA fragments using a modification of the PCR technique. Probes for myb, myc and n-ras were isolated. The isolated fragments were labeled to high specific activity with […] (3000 ci/mmol). Prehybridization of the filter was performed. The hybridization mixer contained 50,000 cpm of probe. The probes were hybridized at 58° C. in 15 mM NaCl, […] sodium citrate for 3 hours. After hybridization, they were exposed to XAR-5 film. Oncogene expression was quantitated by densitometer scanning of the autoradiography.

tumor suppressor p^17 = assay: p17 allelic loss by PCR-SSCP; format: cell-based
Description: The p^17 is a tumor suppressor. The gastric cancer cells were used in this experiment. Gastric cancer cells and normal cells were cultured in RPMI 1640 medium supplement with 10% fetal bovine serum. All the exons of tumor suppressor p^17 were amplified by the polymease chain reaction (PCR) using specific oligonucleotide primers. The PCR products were subjected to single-strand conformation polymorphism (SSCP) analysis. A second PCR-SSCP analysis was performed. Levels of DNA methylation were determined.

Epidermis cancer cells = assay: Differentiation of epidermis cancer cells (NBT, NSE); format: cell-based, mouse; settings: Epidermis cancer cells + HHT; P < 0.001
gastric cancer cells = assay: Differentiation of gastric cancer cells (NBT, NSE); format: cell-based; settings: Gastric cancer cells + HHT; P < 0.001
Description: The gastric cancer cells and normal cells were cultured in PRMI 1640 medium supplement with 10% FCS serum. Other method is similar to example 1.

caspase-3 = assay: Determination of caspase activation (Ac-DEVD-AMC substrate, cell lysate); format: cell-based; settings: control 25.4 ± 3.0
Description: (§8) Neuroblastoma tumor cells, melanocytic and epithelial cells used in this experiment. Cells were grown routinely as monolayers in a 1:1 mixture of Eagle's minimum essential medium and Ham's nutrient mixture F-12 supplemented with 15% heat-inactivated fetal calf serum. Cells were used over a maximum of 15 passages to minimize intersubline differentiation.
Determination of Caspase Activation. The substrate used was Ac-DEVD-AMC, which was made to 5 mM stock in dimethylformamide. On the day of the assay, substrate stock was diluted in water to 500 μM and kept on ice. Cell lysate (20 μg) was diluted to equal volumes (20 μl) in Nonidet-P40 lysis buffer and 1/10th of the volume of substrate was added. Exactly 10 min later, the reaction was stopped by adding the mix into 2 ml of water. Fluorescence was read on a fluorometer at an excitation wavelength of 380 nm and emission wavelength of 460 nm.

breast carcinoma MCF-7 = assay: Tumor cell proliferation inhibition, MCF-7; format: cell-based, Human; settings: 1 μg/ml drug, 72 hours
Description: as §1, §2, §3

c-myb RNA = assay: Oncogene expression by northern blot in ML-1 cells: c-myb; format: cell-based, Human
Description: as §5, §6, §7

tumor suppressor p^16 = assay: Methylation of tumor suppressor p16 (PCR-based) in bladder cell lines; settings: Cancer cells treated by HHT (no treatment: 81.5; normal: 15.8)
From the text: Bladder cell lines were used. Methods of RT-PCR were regular. PCR-based methylation determined by inability of some restriction enzymes to cut methylated sequences methods of determination was used to analyze the methylaton status of the p^16 and p^15 . PCR products were resolved on 2% agarose gels transferred to a nylon membrane and hydridized for the RT-PCR products. An undigested DNA control and MSPI-digested DNA control were examined.

[4] = test system: oral epidermoid carcinoma (KB); assay: Tumor cell proliferation inhibition, KB; format: cell-based, Human; settings: 1 μg/ml drug, 72 hours
Description: as §1, §2, §3

[5] = test system: Neuroblastoma tumor cells, melanocytic and epithelial cells; assay: Apoptosis with HHT and APO-2L (filter binding assay); format: cell-based
Description: as §8
Cytotoxicity Assays. Etoposide sensitivity was measured by clonogenic assay. Five hundred cells were plated per 2-cm^2 dish. Cells were treated for 1 hour with HHT or medium. Results are the mean ±S.E. of three independent experiments and duplicate plates were used in each individual experiment. Apoptosis was quantified by the filter binding assay.

Hela = assay: Tumor cell proliferation inhibition, Hela; format: cell-based, Human; settings: 1 μg/ml drug, 72 hours
Description: as §1, §2, §3

`COC(=O)C[C@](O)(CCCC(C)(C)O)C(=O)O[C@@H]1C(OC)=C[C@]23CCCN2CCc2cc4c(cc2[C@H]13)OCO4` [HHT, homoharringtonine] was tested, and the “Apoptosis (%)” value [1] was 68.3 ± 7.6%, the “NBT (%)” value (HL-60 cells) was 65* % and the “NSE (%)” value (HL-60 cells) was 62* %. For the same molecule, the “Inhibition (%)” value [2] was 73.8 ± 8.1%, the mice died (normal mice) was “about 50%” and the “Inhibition (%)” value (HL-60) was 80.8 ± 9.0%. The “Frequency of p^53 mutations (%)” value (tumor suppressor p^53; Gastric cancer cells treated by HHT (no drug: 35)) was 5%, the “Inhibition T/C (%)” value (tumor suppressor p^53; p^53 mutations, Gastric cancer cells treated by HHT) was 14.3 ± 1.5% and the LD50 (mice) was 3.17 ± 0.19 mg/kg. The Toxic dose (dogs) was 0.16 mg/kg/day, the “DNA synthesis of TPA-stimulated mouse epidermis” value [3] was “remarkable inhibit” and the “Inhibition (%) c-myc RNA” value (c-myc RNA; HHT concentration 10 ng/ml) was 70.5 ± 8.5%. For the same molecule, the “Inhibition (%) c-myc RNA” value (c-myc RNA; HHT concentration 50 ng/ml) was 70.8 ± 8.9%, the “Frequency of p^17 allelic loss (%)” value (tumor suppressor p^17; Leukemic cancer cells treated by HHT (untreated: 40)) was 5% and the “Inhibition T/C (%)” value (tumor suppressor p^17; p^17 allelic loss, Leukemic cancer cells treated by HHT) was 12.5 ± 1.2%. For the same molecule, the “NBT (%)” value (Epidermis cancer cells) was 80* %, the “NSE (%)” value (Epidermis cancer cells) was 78* % and the “NBT (%)” value (gastric cancer cells) was 58* %. The “NSE (%)” value (gastric cancer cells) was 60* %, the Caspase-3 activity (caspase-3) was 150.5 ± 16 and the “Inhibition (%)” value (breast carcinoma MCF-7) was 78.5 ± 7.9%. The “Inhibition (%) c-myb RNA” value (c-myb RNA; HHT concentration 10 ng/ml) was 65.0 ± 5.7%, the “Inhibition (%) c-myb RNA” value (c-myb RNA; HHT concentration 50 ng/ml) was 67.7 ± 6.8% and the “Methylation (%)” value (tumor suppressor p^16) was 23.8^b %. The “Inhibition (%)” value [4] was 80.0 ± 8.5%, the “Apoptosis (%)” value ([5]; HHT 500 nM (control 5.0 ± 0.49)) was 39.5 ± 4.1% and the “Inhibition (%)” value (Hela) was 75.6 ± 8.0%.

B1: APO-2L: also called TRAIL, has been shown to induce apoptosis of variety of cancer cell types (protein, UniProt P50591 1-281, looked up)
Tumor necrosis factor ligand …: MAMMEVQGGPSLGQTCVLIVIFTVLLQSLCVAVTYVYFTNELKQMQDKYSKSGIACFLKEDDSYWDPNDEESMNSPCWQVKWQLRQLVRKMILRTSEETISTVQEKQQNISPLVRERGPQRVAAHITGTRGRSNTLSSPNSKNEKALGRKINSWESSRSGHSFLSNLHLRNGELVIHEKGFYYIYSQTYFRFQEEIKENTKNDKQMVQYIYKYTSYPDPILLMKSARNSCWSKDAEYGLYSIYQGGIFELKENDRIFVSVTNEHLIDMDHEASFFGAFLVG
B1 was tested, and the “Apoptosis (%)” value ([5]; APO-2L (control 5.0 ± 0.49)) was 20.8 ± 2.0%.
